The results in this text go back to patent US20100267803A1, “Regulators Of Fat Metabolism As Anti-Cancer Targets” (The Research Foundation of State University Of New York, priority 2008, published 2010).

Format in all cases: cell-based, human
The subject of series [1] is BT474 cells. Nature of the series: Apoptosis by cleaved Caspase-3 or activated Bax immunofluorescence. The conditions noted are these: 48 h of shRNA or 20 μM GW9662. The method, then:
(§1) Results are shown as percentage of control. (**P=0.03). (c) BT474 cells were transfected with luciferase (control), PBP and NR1D1 shRNAs and co-transfected with GFP. Green cells were counted at intervals and expressed as percentage of control. (Error bars are s.d from 3 individual experiments; *P<0.08, **P<0.03, ***P<0.005). (d) BT474 cells were transfected with luciferase (control), PBP or NR shRNAs for 48 h. Immunofluorescence was performed for cleaved Caspase-3 signal; cell nuclei were stained with Hoechst 33243. (e) Cells from […] were counted for cleaved Caspase-3 signal. (Error bars are s.d from 3 individual experiments; ***P<0.0003). (f) BT474 cells were transfected with luciferase (control) PBP, NR1D1 or PBP and NR1D1 shRNAs together and co-transfected with GFP. Transfected cells were counted at 24 h and 72 h and the 72 h-to-24 h ratio for each shRNA was calculated and expressed as % of the control shRNA (luciferase). (Error bars are s.d from 3 individual experiments; **P=0.01, ***P<0.002). (g) Cells from (f) were counted for cleaved Caspase-3 signal. (Error bars are s.d from 3 individual experiments; ***P<0.0001). (h) ERBB2 mRNA levels of BT474 cells transfected with luciferase (control), PBP or NR1D1 shRNAs for 48 h, analyzed by qRT-PCRs. (Error bars are s.d from 3 individual experiments; ***P=0.0001).
FIG. 3 PPAR. inhibition impacts NR1D1 expression and ERBB2-positive cells viability. (a) Cell counts of BT474, MDA-MB-361, MCF-7 and HMEC cells treated with vehicle, 10 and 20 μM of the PPAR. antagonist GW9662 for 72 hrs. Results represented as % of control (vehicle). (Error bars are s.d from 3 individual experiments; *P>0.2, **P<0.05, ***P<0.002). […] (c) Quantification of Caspase-3 signal. […] (d) aP2 and NR1D1 mRNA levels of BT474 cells treated with vehicle (control) and 20 μM of GW9662 for 48 h, analyzed by qRT-PCRs. […]
FIG. 5. (a) MDH1 and ME1 mRNA levels of BT474 cells treated with luciferase (control), PBP or NR1D1 shRNAs for 48 h, analyzed by qRT-PCRs. […] (d) Quantification of cleaved Caspase-3 signal from cells in (c). […]

Series [2] relates to BT474 cells. The experiment in a line: Counts of GFP co-transfected BT474 cells (cell death / viability). The following applies: shRNA co-transfected with GFP, counted up to 72 h. The method, then: as §1
FIG. 4 NR1D1 and PBP coordinate fatty acid metabolism in breast cancer cells. (a) BT474, MDA-MB-361, MCF-7 and HMEC cells were stained with Oil-Red O lipid and hematoxylin nuclear stains. (b) Fat stores were quantified by BODIPY 493/503 lipid probe staining (Error bars are s.d from 3 individual experiments). (c) FASN, ACLY, ACACA and FADS2 mRNA levels of BT474 cells treated with luciferase (control), PBP or NR1D1 shRNAs, or with vehicle and 20 μM of GW9662 for 48 h, analyzed by qRT-PCRs. (Error bars are s.d from 3 experiments; ***P<0.001, **P=0.005) (d) BT474 cells were transfected with FASN, ACLY and ACACA shRNAs and co-transfected with GFP. Transfected cells were counted at 24 h and 72 h and the 72h-to-24 h ratio for each shRNA was calculated and expressed as % of the control shRNA (luciferase). (Error bars are s.d from 3 individual experiments; **P<0.01, ***P<0.002). (e) BODIPY images and (f) quantification of BT474 cells transfected with luciferase (control), PBP or NR1D1 shRNAs and co-transfected with DsRed (Error bars are s.d from 3 individual experiments; ***P<0.03). Arrows indicate transfected cells.
FIG. 5. (a) MDH1 and ME1 mRNA levels of BT474 cells treated with luciferase (control), PBP or NR1D1 shRNAs for 48 h, analyzed by qRT-PCRs. (Error bars are s.d from 3 experiments; **P<0.002 (b) BT474 and MCF-7 cells were transfected with luciferase (control) MDH1 and ME1 shRNAs (Error bars are s.d from 3 individual experiments; ***P=0.0003). (c) BT474 cells) assayed for cleaved Caspase-3 signal by immunofluorescence 48 h after transfection; cell nuclei were stained with Hoechst 33243. (d) Quantification of cleaved Caspase-3 signal from cells in (c). (Error bars are s.d from 3 individual experiments; ***P<0.005). (e) Enzymes involved in fatty acid synthesis and storage that are regulated by NR1D1 and PBP and their proposed contribution to energy production necessary for survival of ERBB2-positive breast cancer cells.
(§2) Cell viability—apoptosis assays. […] At least 30 fields were imaged per single experiment. […] Immunoblotting. […] PCR reaction was run using standard conditions.

For series [3], the system named is BT474 cells. Nature of the series: RNAi screen, alamarBlue cell proliferation and viability. The following applies: shRNA transfection. From the text:
(§3) FIG. 1 An RNAi screen targeting genes overexpressed in breast cancer. (a) Three transfection mixes were produced for each shRNA and each was transfected into triplicate wells of BT474 cells. AlamarBlue was used to monitor cell proliferation and viability. […] (b) The genetic and functional linkage of NR1D1 and PBP. Mb refers to map position on chromosome 17. (c) ERBB2-overexpressing (OEX) and ERBB2 non-overexpressing (non-OEX) breast cancer cell lines as well as the (non-OEX) HMEC and HEK 293 cells were transfected and assayed as in (a). […] Genes clustered with ERBB2 are boxed.
Amplification of the ERBB2 oncogene occurs in 10-34% of breast cancer cases and is correlated with aggressive disease and poor clinical outcome^1. […] However, its success has been tempered by response rates of only 30% when used as a single agent therapy in patients with metastatic ERBB2-positive breast cancer^2. A large number of genes co-overexpressed with ERBB2 in this tumour type have been proposed to contribute to the aggressiveness of this cancer^3-5. Applicants have performed an unbiased functional RNAi screen^8-10 to determine if any of these co-overexpressed genes are essential for ERBB2 positive breast cancer cell survival.
RNAi screen, transfections and constructs. The flag-RevErba (flag-NR1D1) overexpression construct was a generous gift of M. Lazar. The LSXN-neu* (ERBB2) overexpression construct was a generous gift of L. Petti. shRNA constructs were expressed from the pSHAG-MAGIC 2 (pSM2) vector and derived from a genome-wide shRNA library^31. ShRNAs targeting the firefly (Photinus pyralis) luciferase gene were used as controls. Transfection efficiency was monitored by co-transfection with a modified MSCV-Puro vector expressing green fluorescent protein (GFP). The alamarBlue (Biosource) assay was performed 96 h post-transfection, since BT474 cells have a population doubling time of ˜100 hours. For mature sequences of the shRNAs that produced the best results on decreasing BT474 viability, Table S1; a complete list is available in the RNAi Codex web page (http://codex.cshl.edu). The shRNAs targeting the luciferase gene were constructed as described in the RNAi Codex web page (http://codex.cshl.edu/scripts/newmain.pl) using a modified pSM2 vector containing the PheS gene (pSM2-PheS) in the cloning site, as a negative selection marker. The empty vector control (pSM2e) was constructed by XhoI and EcoRI (New England Biolabs) digestion of pSM2-PheS, followed by nucleotide filling of protruding ends by Klenow polymerase and blunt-end ligation. Transfections were performed using FuGENE 6 and HD FuGENE (Roche) according to the manufacturer's protocol. High-throughput transfections were performed using an EpMotion 5070 fluidics station (Eppendorf). For quantification of alamarBlue we used a BioTek HT Synergy plate reader. AlamarBlue values from the RNAi screens on other cell types were also calculated as above and subjected to hierarchical cluster analysis using Cluster 2.11 (M. Eisen Lab).

Series [4] concerns BT474, MDA-MB-361, MCF-7 and HMEC cells. Nature of the series: Cell counts after PPARγ antagonist treatment. The following applies: 10 and 20 μM for 72 hrs; % of vehicle. The method, then: FIG. 3 PPAR. inhibition impacts NR1D1 expression and ERBB2-positive cells viability. (a) Cell counts of BT474, MDA-MB-361, MCF-7 and HMEC cells treated with vehicle, 10 and 20 μM of the PPAR. antagonist GW9662 for 72 hrs. Results represented as % of control (vehicle). (Error bars are s.d from 3 individual experiments; *P>0.2, **P<0.05, ***P<0.002). (b) BT474 cells treated with vehicle or 20 μM of GW9662 for 48 h were immuno-stained for cleaved Caspase-3. (c) Quantification of Caspase-3 signal. (Error bars are s.d from 3 individual experiments; ***P=0.002). (d) aP2 and NR1D1 mRNA levels of BT474 cells treated with vehicle (control) and 20 μM of GW9662 for 48 h, analyzed by qRT-PCRs. (Error bars are s.d from 3 experiments; ***P<0.0006. (e) BMAL1-luc activity of BT474 cells treated with vehicle or 20 μM of GW9662 for 48 h. (Error bars are s.d from 3 individual experiments; **P=0.03). (f) Total ERBB2 western blot of BT474 cells treated with vehicle or 20 μM GW9662 for 72h. GAPDH was used as control.
as §2

Series [5] deals with nonoverexpressing breast cancer cell lines (MCF-7, MDA-MB-453, MDA-MB-468), HMECs, HEK 293FT. Nature of the series: alamarBlue proliferation of shRNA-transfected ERBB2 non-overexpressing cell lines. The conditions noted are these: MCF-7, MDA-MB-453, MDA-MB-468, HMEC, shRNA transfection.
Description: as §3
(§4) To assess the specificity of effect of each shRNA on cell proliferation, those causing the greatest decrease in BT474 cell proliferation were transfected in a variety of cell lines, including ERBB2 overexpressing (BT474, MDA-MB-361) and nonoverexpressing breast cancer cell lines (MCF-7, MDA-MB-453, MDA-MB-468), normal human mammary epithelial cells (HMECs) and a non-breast tumorigenic cell line (HEK 293FT). […] PBP, NRID1 and PFN2 shRNAs clustered with ERBB2.
(§5) RNAi screen, transfections and constructs. The flag-RevErba (flag-NR1D1) overexpression construct was a generous gift of M. Lazar. The LSXN-neu* (ERBB2) overexpression construct was a generous gift of L. Petti. shRNA constructs were expressed from the pSHAG-MAGIC 2 (pSM2) vector and derived from a genome-wide shRNA library^31. ShRNAs targeting the firefly (Photinus pyralis) luciferase gene were used as controls. Transfection efficiency was monitored by co-transfection with a modified MSCV-Puro vector expressing green fluorescent protein (GFP). The alamarBlue (Biosource) assay was performed 96 h post-transfection, since BT474 cells have a population doubling time of ˜100 hours. […] For quantification of alamarBlue we used a BioTek HT Synergy plate reader. AlamarBlue values from the RNAi screens on other cell types were also calculated as above and subjected to hierarchical cluster analysis using Cluster 2.11 (M. Eisen Lab).

Series [6] concerns ERBB2 overexpressing (BT474, MDA-MB-361) breast cancer cell lines. Nature of the series: alamarBlue proliferation of shRNA-transfected ERBB2-overexpressing cell lines. The conditions noted are these: shRNA transfection.
Description: as §3, §4, §5

Turning to “ME1 shRNA: shRNA, mature sequence GGCTTTATCCTCCTTTGAA (shRNA)”, in series [1], the apoptosis entry is reported as “apoptosis”. Also, the “cell death / viability (cell number of transfected cells)” value (“cell death / viability” below) in series [2] is “cell death”.

For “MAP2K6 shRNA: shRNA, mature sequence CAGATGACCTGGAGCCTAT (shRNA)”, the “effect on cell proliferation” value in series [3] is “most dramatic effect on cell proliferation”.

Regarding “ACACA shRNA: shRNA, mature sequence CACATGACCTTAAGATTAT (shRNA)”, in series [2], the “cell death / viability” value is “significantly decreased BT474 cell viability”.

With “FADS2 shRNA: shRNA, mature sequence CCCATAGGGAGCTGATCGT (shRNA)”, the “effect on cell proliferation” value in series [3] was “moderate effect on cell proliferation”.

On to “TPD52 shRNA: shRNA, mature sequence CTGTGAGATTCCTACCTTT (shRNA)”, for which the “effect on cell proliferation” value in series [3] is listed as “significant effects on proliferation”.

In the case of “MKI67 shRNA: shRNA, mature sequence GCTACAAACTCCTAAGGAA (shRNA)”, the “effect on cell proliferation” value in series [3] is “significant effects on proliferation”.

As for `O=C(Nc1ccncc1)c1cc([N+](=O)[O-])ccc1Cl` [second PPARγ antagonist], in series [4], the “sensitivity of cells to drug treatment (cell counts)” value is given as “produced the same effects”.

With “PFN2 shRNA: shRNA, mature sequence AGCATTACGCCAATAGAAA (shRNA)”, the “effect on other cell lines or HMECs” value in series [5] is “without effect on other cell lines or HMECs”. Further, the “viability of ERBB2-positive cells” value in series [6] is “specifically decreased the viability of ERBB2-positive cells”.

As to “CA9 shRNA: shRNA, mature sequence CTTTGAATGGGCGAGTGAT (shRNA)”, the “effect on cell proliferation” value in series [3] is on record as “significant effects on proliferation”.

Regarding “FASN shRNA: shRNA, mature sequence CTGGCCCAGGCTGAAGTTT (shRNA)”, the “effect on cell proliferation” value in series [3] was “moderate effect on cell proliferation”. The “cell death / viability” value in series [2] is “significantly decreased BT474 cell viability”.

In the case of “MDH1 shRNA: shRNA, mature sequence CGAGCTAAAGCTCAAATTG (shRNA)”, the apoptosis entry in series [1] is recorded as “apoptosis”. The “cell death / viability” value in series [2] was “cell death”.

In the case of “ACLY shRNA: shRNA, mature sequence GGGAGGAAGCTGATGAATA (shRNA)”, in series [2], the “cell death / viability” value is “significantly decreased BT474 cell viability”.
